This is an account of results in patent publication US20240050577A1, “CDK INHIBITORS AND PHARMACEUTICAL USES THEREOF” (RISEN (SUZHOU) PHARMA TECH CO., LTD., priority 2022, published 2024).

Common to all, as to assay type: cell-based
The target in one experiment is T1, CDK1 protein (Homo sapiens, UniProt P06493).
T1 construct: host or cells: OVCAR3
Kind of experiment: CDK1 protein degradation in OVCAR3 cells (Western blot). The conditions noted are these: 24 h; for DC50: read-out: DC50 CDK1 (half-maximum degradation concentration); for percent CDK1 protein degradation at 0.05 µM: OVCAR-3, 50 nM test compound, read-out: level of CDK1 protein degradation. The method, then:
(§1) OVCAR3 (Cobioer, CBP60294) cell line of exponential growth phase was inoculated on a 6-well cell culture plate (Corning, 3516) according to 3E5/well scheme; and the plate was incubated overnight in a 5%-carbon dioxide incubator at 37° C. The next day, the test compound was dissolved in DMSO (Sigma, RNBF5902) to prepare a 10-mM concentration stock solution. The stock solution was diluted with complete medium, giving working solutions of different concentrations. Working solution was added into the corresponding wells of the orifice plate. The plate was placed in a 5% carbon dioxide incubator, set at 37° C., and incubated for 24 h. The plate was removed from the incubator, and the cells were washed twice with precooled PBS (Gibco, 14190250), followed by addition of 40 μL RIPA lysis buffer (containing protease inhibitor (Invitrogen™, AM2696)) to each well. Adherent cells were scraped off with a cell scraper, and the cell lysate was transferred to a 1.5 mL centrifuge tube, and the tube was placed on ice for 30 minutes. After completion of cell lysis, the tube was centrifugated for 10 min at 4° C., 14000 rpm. The supernatant was transferred into a new 1.5-mL centrifuge tube, and the new tube was placed on ice, followed by measurement of the protein concentration with BCA protein detection kit (Thermo Fisher, 23225). A mixture of cell lysate (40 μL) and loading buffer (10 μL, 5×SDS (Beyotime, P0015L)) was placed into a water bath at 95° C. for 10 min to denature the protein. The denatured protein sample, 30 μL/well, was added into a corresponding well of 4-20% Bis-Tris gel (Kingsley, M00657). The initial voltage was adjusted to 80-V and run for 30 min, followed by voltage increased to 120 V, and run for another 40 min, until the strip had run to the appropriate position. After electrophoresis, iBlot2 (Life Technologies, IB21001) was used to transfer the film under the condition of 20 V and 7 min. At the end of film transfer, 5% skimmed milk powder was sealed at room temperature for 2 h, and then TBST (Thermo Scientific, 28360) buffer solution was used to rinse for three times, 10 minutes each time. Skimmed milk powder (5%) was diluted with the first antibody in the appropriate proportion, and the working solution of the first antibody was prepared and incubated overnight at 4° C. After the incubation of the first antibody, the membrane was washed three times at room temperature with TBST buffer solution, 10 minutes each time; and the second antibody was incubated with 5% skimmed milk powder at room temperature for 1 h. After washing the film for three times with TBST, ECL color developing solution (Thermofisher 34095) was added, and an image was taken on a Biorad Chemi Doc gel imager. The band gray value was analyzed (Image Lab).
(§2) Symbols of “−”, “+”, “++”, and “+++” indicate that the degradation level of CDK protein induced by test compound was 10% or less, 11 to 30%, 31 to 60%, and greater than 60%, respectively.
(§3) Half-maximum degradation concentrations (DC50s) of test compounds were calculated using GraphPad Prism and their values are shown in Table 4. Symbols of “++++”, “+++”, “++”, “+” and “−” represent DC50s equal or less than 10 nM, 11-50 nM, 51-100 nM, 101-200 nM, and >200 nM, respectively.
(Immunoblotting shows a protein as a band on a membrane.)

In the next experiment the target is T2, CDK2 protein (Homo sapiens, UniProt P24941).
T2 construct: host or cells: OVCAR3
Kind of experiment: CDK2 protein degradation in OVCAR3 cells (Western blot). As to conditions: 24 h; for level of CDK2 protein degradation: 50 nM test compound; for DC50: read-out: DC50 CDK2 (half-maximum degradation concentration). The protocol:
as §1, §2, §3

For another experiment, the target named is T3, CDK4 protein (Homo sapiens, UniProt P11802).
T3 construct: host or cells: OVCAR3
T3 sequence (P11802 whole entry): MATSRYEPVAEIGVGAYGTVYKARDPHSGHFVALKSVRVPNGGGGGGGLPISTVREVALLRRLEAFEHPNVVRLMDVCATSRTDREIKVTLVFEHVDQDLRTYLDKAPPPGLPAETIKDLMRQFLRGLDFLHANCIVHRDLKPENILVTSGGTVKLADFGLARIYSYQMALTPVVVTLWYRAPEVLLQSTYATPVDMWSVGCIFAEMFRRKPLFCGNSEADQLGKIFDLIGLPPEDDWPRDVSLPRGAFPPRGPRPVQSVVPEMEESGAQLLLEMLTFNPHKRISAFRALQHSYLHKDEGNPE
Description: CDK4 protein degradation in OVCAR3 cells (Western blot). As to conditions: 24 h; for DC50: read-out: DC50 CDK4 (half-maximum degradation concentration); for percent CDK4 protein degradation at 0.05 µM: OVCAR-3, 50 nM test compound, read-out: level of CDK4 protein degradation. The protocol: as §1, §2, §3

Another experiment deals with T4, CDK6 protein (Homo sapiens, UniProt Q00534).
T4 construct: host or cells: OVCAR3
T4 sequence (Q00534 whole entry): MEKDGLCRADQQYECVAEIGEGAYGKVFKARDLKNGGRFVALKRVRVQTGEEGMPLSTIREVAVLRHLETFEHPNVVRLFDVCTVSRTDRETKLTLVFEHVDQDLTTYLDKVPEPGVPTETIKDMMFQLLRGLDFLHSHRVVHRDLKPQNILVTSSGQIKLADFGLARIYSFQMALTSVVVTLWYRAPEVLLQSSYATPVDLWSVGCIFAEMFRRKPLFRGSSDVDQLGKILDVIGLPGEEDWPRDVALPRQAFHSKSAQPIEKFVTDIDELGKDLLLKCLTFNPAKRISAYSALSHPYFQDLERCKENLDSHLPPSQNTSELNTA
Kind of experiment: CDK6 protein degradation in OVCAR3 cells (Western blot). The conditions noted are these: 24 h; for DC50: read-out: DC50 CDK6 (half-maximum degradation concentration); for percent CDK6 protein degradation at 0.05 µM: OVCAR-3, 50 nM test compound, read-out: level of CDK6 protein degradation. The protocol:
as §1, §2, §3

A further experiment deals with OVCAR3 cells. Kind of experiment: Cell proliferation study (Cell Titer Glo, 72 h). The conditions noted are these: Homo sapiens, OVCAR-3, luminescence, read-out: IC50, inhibitory effect on cellular proliferation.

T1 sequence (P06493 whole entry): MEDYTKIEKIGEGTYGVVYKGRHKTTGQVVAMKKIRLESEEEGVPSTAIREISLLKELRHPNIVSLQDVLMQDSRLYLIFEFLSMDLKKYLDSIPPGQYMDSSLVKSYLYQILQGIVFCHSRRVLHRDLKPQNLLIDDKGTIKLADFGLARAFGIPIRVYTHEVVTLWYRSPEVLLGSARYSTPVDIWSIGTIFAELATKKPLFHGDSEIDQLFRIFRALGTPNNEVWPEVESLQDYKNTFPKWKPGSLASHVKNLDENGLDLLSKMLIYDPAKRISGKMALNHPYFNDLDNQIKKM

In the case of `Cc1nc2c(F)cc(-c3nc(NC4CCN(S(=O)(=O)C5CCN(C6CN(C7CCN(c8cc9c(cc8F)C(=O)N(C8CCC(=O)NC8=O)C9=O)CC7)C6)CC5)CC4)ncc3F)cc2n1C(C)C` (stereo not drawn) [Compound 79], at CDK1 protein, the DC50 was less than 0.01 µM and the percent CDK1 protein degradation at 0.05 µM was more than 60%. Besides, at CDK2 protein, the “level of CDK2 protein degradation” value is recorded as “+++ (greater than 60%)” and the DC50 is less than 0.01 µM. On CDK4 protein, the DC50 was more than 0.2 µM and the percent CDK4 protein degradation at 0.05 µM is not above 10%. For the same molecule, at CDK6 protein, the DC50 is less than 0.01 µM and the percent CDK6 protein degradation at 0.05 µM is more than 60%. In the experiment on OVCAR3 cells, the IC50 is less than 0.1 µM.

Regarding `C[C@@]1(O)CCC[C@H]1n1c(=O)ccc2cnc(NC3CCN(S(=O)(=O)C4CCN(C5CC6(CCN(c7cc8c(cc7F)C(=O)N(C7CCC(=O)NC7=O)C8=O)CC6)C5)CC4)CC3)nc21` (stereo partly drawn) [Compound 94], at CDK1 protein, the DC50 is less than 0.01 µM and the percent CDK1 protein degradation at 0.05 µM is more than 60%. Besides, on CDK2 protein, the “level of CDK2 protein degradation” value is given as “+++ (greater than 60%)” and the DC50 was less than 0.01 µM. Besides, at CDK4 protein, the DC50 was more than 0.2 µM and the percent CDK4 protein degradation at 0.05 µM lay in the range of 11 to 30%. Besides, on CDK6 protein, the DC50 is more than 0.2 µM and the percent CDK6 protein degradation at 0.05 µM is more than 60%. Further, the IC50 with OVCAR3 cells was in the range of 1 to 5 µM.

For `C[C@@]1(O)CCC[C@H]1n1c(=O)ccc2cnc(NC3CCN(S(=O)(=O)C4CCN(CC5CCN(C6CN(c7cc8c(cc7F)C(=O)N(C7CCC(=O)NC7=O)C8=O)C6)CC5)CC4)CC3)nc21` (stereo partly drawn) [Compound 95], on CDK1 protein, the DC50 lay in the range of 0.011 to 0.05 µM and the percent CDK1 protein degradation at 0.05 µM is more than 60%. Further, on CDK2 protein, the “level of CDK2 protein degradation” value is given as “++ (31 to 60%)” and the DC50 is 0.051 to 0.1 µM. On CDK4 protein, the DC50 was more than 0.2 µM and the percent CDK4 protein degradation at 0.05 µM is 31 to 60%. Further, at CDK6 protein, the DC50 is less than 0.01 µM and the percent CDK6 protein degradation at 0.05 µM is more than 60%. For the same molecule, in the experiment with OVCAR3 cells, the IC50 was 0.101 to 1 µM.
